In US8168801B2, “Imidazolium-type ionic oligomers” (The Royal Institution for the Advancement of …, priority 2007, dated 2012):
Structures can show the parent of a compound that is named as a salt.

Columns and labels:
[1] = Thermal stability by thermogravimetric analysis (TGA); assay type: physicochemical; conditions: 25° C. to 550° C. at 20° C./min under nitrogen, then air to 700° C., platinum pan
Description: The thermal stability of the imidazolium-type ionic oligomers was measured by thermogravimetric analysis (TGA).^42 The onset decomposing temperatures (ODTs) and residue percentages (RPs) are summarized hereinbelow in Table 1.
General: All reagents were commercially obtained from Aldrich Chemical Co. and were used without further purification unless otherwise noted. Solvents were of reagent grade and, if necessary, were dried by standard procedures. ^1H NMR, ^13C NMR and COSY NMR spectra were acquired using Varian Mercury 300 MHz, 400 MHz and Unity 500 MHz spectrometers respectively, equipped with Sun workstations. The proton chemical shifts were reported in parts per million on the δ scale, referenced to the residual proton resonance in CDCl3 (δ 7.24 ppm) or D2O (δ 4.67 ppm). The carbon chemical shifts were reported in parts per million on the δ scale, internally referenced to the solvent resonance in CDCl3 (δ 77.0 ppm). The proton and carbon assignments were made by standard gCOSY experiments. Melting points were taken using a standard melting point apparatus without correcting the thermometer. High resolution mass spectrometric analyses were performed on a VG Micromass ZAB 2F HS (FAB) or a Microm as Quattro II triple quadrupole mass spectrometer (Manchester, UK) equipped with an electrospray ionization source (ESI). Typically only the ion corresponding to the cation (C) component was analyzed. Thermogravimetric analysis (TGA) measurements were performed on a TGA Q500 from TA instruments. The running method used was ramped from 25° C. to 550° C., 20° C./min, under nitrogen, switching to air and then ramped at 20° C./min to 700° C. The type of pan used was platinum. High-pressure liquid chromatography (HPLC) analyses were performed using a reverse phase C18 column (Agilent Zorbax Extend-C18). The elution was performed using a linear gradient from 50% to 100% of B in A over 20 min, followed by a linear gradient elution from 100% to 50% of B in A over 10 min, where A is H2O/0.05% TFA (v/v) and B is CH3CN/0.05% TFA (v/v), at a flow rate of 0.8 mL/min. The eluted compounds were detected by UV absorbance at 210 nm. […]

[2] = Moisture affinity (absorption of moisture from the atmosphere); assay type: physicochemical

Row | SMILES | Onset decomposing temperature (ODT) [1] [°C] | Residue percentage (RP) [1] [%] | melting point [°C] | Absorption of moisture from the atmosphere [2]
1 | Cc1n(C)cc[n+]1CCCBr [Compound 2] | 215.8 | 0.10 | – | –
2 | Cc1n(C)cc[n+]1CCCn1cc[n+](CCCBr)c1C [Compound 9] | 212.2 | 1.89 | – | –
3 | Cc1n(C)cc[n+]1CCCn1cc[n+](CCCBr)c1C (as salt: triflate) [Compound 10] | – | – | 84 to 86 | –
4 | Cc1n(C)cc[n+]1CCCn1cc[n+](CCCBr)c1C (as salt: bromide) [Compound 9] | – | – | 201 to 203 | –
5 | Cc1nccn1CCC[n+]1ccn(CCC[n+]2ccn(C)c2C)c1C [Compound 6] | 329.6 | 1.38 | 121 to 123 | did substantially not absorb moisture
6 | Cc1n(C)cc[n+]1CCCBr (as salt: bromide) [Compound 2] | – | – | 96 to 98 | –
7 | Cc1nccn1CCC[n+]1ccn(C)c1C (as salt: triflate) [Compound 4] | – | – | 120 to 122 | –
8 | Cc1nccn1CCC[n+]1ccn(CCC[n+]2ccn(C)c2C)c1C [Compound 11] | 326.2 | 1.76 | 107 to 109 | did substantially not absorb moisture
9 | Cc1n(C)cc[n+]1CCCn1cc[n+](CCCBr)c1C [Compound 5] | 239.4 | 0.59 | – | –
10 | Cc1nccn1C [Compound 1, 1,2-dimethylimidazole, reference compound] | 80.6 | 0.18 | – | –
11 | Cc1nccn1CCC[n+]1ccn(C)c1C [Compound 4] | 293.9 | 1.71 | – | significantly slower rate than compound 2
12 | Cc1n(C)cc[n+]1CCCn1cc[n+](CCCBr)c1C (as salt: triflate) [Compound 5] | – | – | 76 to 78 | –
13 | Cc1n(C)cc[n+]1CCCn1cc[n+](CCCBr)c1C [Compound 10] | 277.8 | 0.50 | – | –
14 | Cc1nccn1CCC[n+]1ccn(C)c1C [Compound 3] | 287.8 | 1.53 | – | significantly slower rate than compound 2
15 | Cc1nccn1CCC[n+]1ccn(C)c1C (as salt: bromide) [Compound 3] | – | – | 159 to 161 | –
